From patent US10227357B2, “Compounds and methods for kinase modulation, and indications therefor” (Plexxikon Inc., priority 2012, dated 2019)

Each compound was assayed against T1, c-kit kinase (Homo sapiens, UniProt P10721) (assay: c-Kit biochemical assay, AlphaScreen, 10 μM ATP). Settings: c-kit biochemical inhibitory activity; read-out: Biochemical activity (IC50 μM) Kit.
T1 construct: The c-kit (or kinase domain thereof) is an active kinase in AlphaScreen; poly-Histidine tag (in-house protein only) (cleaved yes); host or cells: E. coli BL21(DE3)RIL, co-expressed with PTP1B
T1 sequence (P10721 26-976): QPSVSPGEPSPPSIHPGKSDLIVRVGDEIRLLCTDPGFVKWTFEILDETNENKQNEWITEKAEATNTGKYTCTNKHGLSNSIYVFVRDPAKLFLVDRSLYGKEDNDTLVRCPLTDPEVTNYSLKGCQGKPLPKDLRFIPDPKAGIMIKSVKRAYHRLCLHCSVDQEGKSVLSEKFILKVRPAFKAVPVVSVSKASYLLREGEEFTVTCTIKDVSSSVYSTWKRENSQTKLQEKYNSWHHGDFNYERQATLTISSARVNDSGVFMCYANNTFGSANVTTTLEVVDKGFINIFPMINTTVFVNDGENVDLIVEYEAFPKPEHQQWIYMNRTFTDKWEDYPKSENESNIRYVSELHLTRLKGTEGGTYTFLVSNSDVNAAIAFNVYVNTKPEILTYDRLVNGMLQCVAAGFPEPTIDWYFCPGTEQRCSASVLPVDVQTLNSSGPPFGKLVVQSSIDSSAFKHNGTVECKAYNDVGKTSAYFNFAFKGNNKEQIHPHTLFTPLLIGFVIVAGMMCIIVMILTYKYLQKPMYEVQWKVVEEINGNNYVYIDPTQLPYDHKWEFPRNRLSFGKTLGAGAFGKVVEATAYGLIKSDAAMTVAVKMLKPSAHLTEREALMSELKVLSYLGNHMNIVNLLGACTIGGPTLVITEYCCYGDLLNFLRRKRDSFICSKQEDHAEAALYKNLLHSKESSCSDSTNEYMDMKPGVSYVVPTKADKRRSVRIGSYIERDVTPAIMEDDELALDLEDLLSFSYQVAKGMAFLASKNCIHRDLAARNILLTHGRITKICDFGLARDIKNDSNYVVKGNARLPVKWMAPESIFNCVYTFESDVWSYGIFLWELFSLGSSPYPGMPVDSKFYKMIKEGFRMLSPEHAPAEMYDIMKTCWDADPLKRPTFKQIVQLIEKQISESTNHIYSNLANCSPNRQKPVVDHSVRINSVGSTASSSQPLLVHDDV
Description: IC50 values are determined with respect to inhibition of c-Kit kinase activity, where inhibition of phosphorylation of a peptide substrate is measured as a function of compound concentration. Compounds to be tested were dissolved in DMSO to a concentration of 20 mM. These were diluted 30 μl into 120 μl of DMSO (4 mM) and 1 μl was added to an assay plate. These were then serially diluted 1:3 (50 μl to 100 μl DMSO) for a total of 8 points. Plates were prepared such that each kinase reaction is 20 μl in 1× kinase buffer (50 mM HEPES, pH 7.2, 5 mM MgCl2, 5 mM MnCl2, 0.01% NP-40, 0.2% BSA), 5% DMSO and 10 μM ATP. […] C-kit kinase was at 0.1 ng per sample. After incubation of the kinase reaction for 1 hour at room temperature, 5 μl of donor beads (Streptavidin coated beads (Perkin Elmer Life Science) final concentration 1 μg/ml) in stop buffer (50 mM EDTA in 1× kinase buffer) was added, the sample was mixed and incubated for 20 minutes at room temperature before adding 5 μl of acceptor beads (PY20 coated beads (Perkin Elmer Life Science) final concentration 1 μg/ml) in stop buffer. The samples were incubated for 60 minutes at room temperature and the signal per well was read on AlphaQuest reader. […] The signal vs. compound concentration was used to determine the IC50.
Complementary DNA cloned from various human tissues were purchased from Invitrogen, and these were used as substrates in the PCR reactions. Specific custom synthetic oligonucleotide primers were designed to initiate the PCR product, and also to provide the appropriate restriction enzyme cleavage sites for ligation with the plasmids. The entire sequence encoding the enzyme was made through a gene synthesis procedure, using custom synthetic oligonucleotides covering the entire coding sequence (Invitrogen, see below).
The plasmid used for ligation with the kinase-encoding inserts was derivative of pET (Novagen) for expression using E. coli. The Kit kinase was engineered to include a Histidine tag for purification using metal affinity chromatography. The kinase-encoding plasmid was engineered as bicistronic mRNA to co-express a second protein that modifies the kinase protein during its expression in the host cell. Protein tyrosine phosphatase 1B (PTP), was co-expressed for dephosphorylation of the phospho-Tyrosines.
For protein expression, the plasmid containing the Kit gene was transformed into E. coli strains BL21(DE3)RIL and transformants selected for growth on LB agar plates containing appropriate antibiotics. Single colonies were grown overnight at 37° C. in 200 ml TB (Terrific broth) media. 16×1 L of fresh TB media in 2.8 L flasks were inoculated with 10 ml of overnight culture and grown with constant shaking at 37° C. Once cultures reached an absorbance of 1.0 at 600 nm, IPTG was added and cultures were allowed to grow for a further 12 to 18 hrs at temperatures ranging from 12-30° C. Cells were harvested by centrifugation and pellets frozen at […] until ready for lysis.
For protein Purification; frozen E. coli cell pellets were resuspended in lysis buffer and lysed using standard mechanical methods. Protein was purified via poly-Histidine tags using immobilized metal affinity purification IMAC. The Kit kinase was purified using a 3 step purification process utilizing; IMAC, size exclusion chromatography and ion exchange chromatography. The poly-Histidine tag was removed using Thrombin (Calbiochem).
`C[C@H]1CN(c2ncnc3[nH]c(-c4ccncc4)cc23)CCN1C(=O)Nc1ccc(OC(F)(F)F)cc1` [P-0043, (2S)-2-methyl-4-[6-(4-pyridyl)-7H-pyrrolo[2,3-d]pyrimidin-4-yl]-N-[4-(trifluoromethoxy)phenyl]piperazine-1-carboxamide] gave an IC50 of 0.0001 to 1 µM. Work on `C[C@H]1CN(c2ncnc3[nH]c(-c4ccncc4)cc23)CCN1C(=O)Nc1ccc(N(C)C)cc1` [P-0046, (2S)-N-(4-dimethylaminophenyl)-2-methyl-4-[6-(4-pyridyl)-7H-pyrrolo[2,3-d]pyrimidin-4-yl]piperazine-1-carboxamide] yielded an IC50 of 1 to 10 µM.

The compounds below were run against T2, c-kit mutant D816V (Homo sapiens, UniProt P10721, D816V/DEL694-753) (assay: c-Kit mutant D816V biochemical assay, AlphaScreen). Settings: c-kit D816V biochemical inhibitory activity; read-out: Biochemical activity (IC50 μM) Kit D816V.
T2 construct: residues 551-934, kinase insertion domain residues 694-753 deleted; 6x-histidine (N); made in house; host or cells: E. coli Arctic Express (DE3) RIL (Stratagene)
T2 sequence (P10721 with tags, fused parts or gaps DEL694-753/D816V): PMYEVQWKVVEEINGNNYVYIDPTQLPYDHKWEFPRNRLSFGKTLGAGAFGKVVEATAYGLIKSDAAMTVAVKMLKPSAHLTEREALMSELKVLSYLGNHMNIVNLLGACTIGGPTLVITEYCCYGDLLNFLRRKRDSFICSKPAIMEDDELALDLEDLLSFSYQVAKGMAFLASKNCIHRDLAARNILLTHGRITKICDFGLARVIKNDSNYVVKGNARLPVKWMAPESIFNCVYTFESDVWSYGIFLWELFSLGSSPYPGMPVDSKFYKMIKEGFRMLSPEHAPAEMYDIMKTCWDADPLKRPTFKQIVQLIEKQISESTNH
Summary of the method: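 Eight-point, threefold compound series incubated 30 min at room temperature with E. coli-produced D816V kinase, 10 μM ATP, Mg2+/Mn2+ HEPES buffer pH 7.2 and 5% DMSO. After EDTA stop, streptavidin and anti-phosphotyrosine (PY20) AlphaScreen beads gave the read-out, and IC50 was fitted from the concentration–signal curve.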
`Cc1cc2c(N3CCC(NS(=O)(=O)c4ccc(OC(F)F)cc4)CC3)ncnc2[nH]1` [P-0656, 4-(difluoromethoxy)-N-[1-(6-methyl-7H-pyrrolo[2,3-d]pyrimidin-4-yl)-4-piperidyl]benzenesulfonamide] gave an IC50 of 10 to 200 µM. In the case of `Cc1cc2c(N3CCC(NS(=O)(=O)c4ccc(C(C)C)cc4)CC3)ncnc2[nH]1` [P-0657, 4-isopropyl-N-[1-(6-methyl-7H-pyrrolo[2,3-d]pyrimidin-4-yl)-4-piperidyl]benzenesulfonamide], the IC50 is reported as 10 to 200 µM. Work on `CCCc1ccc(S(=O)(=O)NC2CCN(c3ncnc4[nH]c(C)cc34)CC2)cc1` [P-0658, N-[1-(6-methyl-7H-pyrrolo[2,3-d]pyrimidin-4-yl)-4-piperidyl]-4-propyl-benzenesulfonamide] yielded an IC50 of 1 to 10 µM. Compound `Cc1ccc(S(=O)(=O)NC2CCN(c3ncnc4[nH]c(-c5cn(C)nc5C)cc34)CC2)cc1` [P-0659, N-[1-[6-(1,3-dimethylpyrazol-4-yl)-7H-pyrrolo[2,3-d]pyrimidin-4-yl]-4-piperidyl]-4-methyl-benzenesulfonamide] has an IC50 of 0.0001 to 1 µM. With `COc1cc(-c2cc3c(N4CCC(NS(=O)(=O)c5ccc(C)cc5)CC4)ncnc3[nH]2)ccn1` [P-0660, N-[1-[6-(2-methoxy-4-pyridyl)-7H-pyrrolo[2,3-d]pyrimidin-4-yl]-4-piperidyl]-4-methyl-benzenesulfonamide] the IC50 was 0.0001 to 1 µM. For `Cc1csc(-c2cc3c(N4CCC(NS(=O)(=O)c5ccc(OC(F)(F)F)cc5)CC4)ncnc3[nH]2)c1` [P-0661, N-[1-[6-(4-methyl-2-thienyl)-7H-pyrrolo[2,3-d]pyrimidin-4-yl]-4-piperidyl]-4-(trifluoromethoxy)benzenesulfonamide], the IC50 was 10 to 200 µM. `CC1(C)C=C(c2cc3c(N4CCC(NS(=O)(=O)c5ccc(OC(F)(F)F)cc5)CC4)ncnc3[nH]2)CC(C)(C)O1` [P-0663, N-[1-[6-(2,2,6,6-tetramethyl-3H-pyran-4-yl)-7H-pyrrolo[2,3-d]pyrimidin-4-yl]-4-piperidyl]-4-(trifluoromethoxy)benzenesulfonamide] was tested, and the IC50 was 10 to 200 µM. For `COc1cc(-c2cc3c(N4CCC(NS(=O)(=O)c5ccc(Cl)cc5)CC4)ncnc3[nH]2)ccn1` [P-0666, 4-chloro-N-[1-[6-(2-methoxy-4-pyridyl)-7H-pyrrolo[2,3-d]pyrimidin-4-yl]-4-piperidyl]benzenesulfonamide], the IC50 was 0.0001 to 1 µM. For `C[C@H](NC(=O)N1CCN(c2ncnc3ccsc23)CC1(C)C)c1cccc(Cl)c1` [P-0677, N-[(1S)-1-(3-chlorophenyl)ethyl]-2,2-dimethyl-4-thieno[3,2-d]pyrimidin-4-yl-piperazine-1-carboxamide], the IC50 was 1 to 10 µM. `CC(C)(NC(=O)N1CCN(c2ncnc3cc(-c4ccc(F)cc4)sc23)CC1(C)C)c1ccccc1` [P-0678, 4-[6-(4-fluorophenyl)thieno[3,2-d]pyrimidin-4-yl]-2,2-dimethyl-N-(1-methyl-1-phenyl-ethyl)piperazine-1-carboxamide] showed an IC50 of 1 to 10 µM. Work on `C[C@H](NC(=O)N1CCN(c2ncnc3[nH]c(-c4ccc(C#N)cc4)cc23)CC1(C)C)c1ccc(F)cc1` [P-0685, 4-[6-(4-cyanophenyl)-7H-pyrrolo[2,3-d]pyrimidin-4-yl]-N-[(1S)-1-(4-fluorophenyl)ethyl]-2,2-dimethyl-piperazine-1-carboxamide] yielded an IC50 of 1 to 10 µM. With `C[C@H](NC(=O)N1CCN(c2ncnc3[nH]c(-c4ccc(C#N)cc4)cc23)CC1(C)C)c1ccc(Cl)cc1` [P-0686, N-[(1S)-1-(4-chlorophenyl)ethyl]-4-[6-(4-cyanophenyl)-7H-pyrrolo[2,3-d]pyrimidin-4-yl]-2,2-dimethyl-piperazine-1-carboxamide] the IC50 was 10 to 200 µM. `C[C@H](NC(=O)N1CCN(c2ncnc3[nH]c(-c4ccc(C#N)cc4)cc23)C[C@H]1C)c1cccc(F)c1` [P-0693, (2R)-4-[6-(4-cyanophenyl)-7H-pyrrolo[2,3-d]pyrimidin-4-yl]-N-[(1S)-1-(3-fluorophenyl)ethyl]-2-methyl-piperazine-1-carboxamide] gave an IC50 of 0.0001 to 1 µM. For `C[C@H](NC(=O)N1CCN(c2ncnc3[nH]c(-c4ccc(C#N)cc4)cc23)CC1)c1ccc(F)cc1` [P-0696, 4-[6-(4-cyanophenyl)-7H-pyrrolo[2,3-d]pyrimidin-4-yl]-N-[(1S)-1-(4-fluorophenyl)ethyl]piperazine-1-carboxamide], the IC50 was 0.0001 to 1 µM. `C[C@H](NC(=O)N1CCN(c2ncnc3[nH]c(-c4ccc(C#N)cc4)cc23)CC1(C)C)c1cccc(OC(F)F)c1` [P-0698, 4-[6-(4-cyanophenyl)-7H-pyrrolo[2,3-d]pyrimidin-4-yl]-N-[(1S)-1-[3-(difluoromethoxy)phenyl]ethyl]-2,2-dimethyl-piperazine-1-carboxamide] was tested, and the IC50 was 0.0001 to 1 µM. `C[C@H](NC(=O)N1CCN(c2ncnc3[nH]c(-c4ccc(C#N)cc4)cc23)C[C@H]1C)c1cccc(OC(F)F)c1` [P-0699, (2R)-4-[6-(4-cyanophenyl)-7H-pyrrolo[2,3-d]pyrimidin-4-yl]-N-[(1S)-1-[3-(difluoromethoxy)phenyl]ethyl]-2-methyl-piperazine-1-carboxamide] showed an IC50 of 0.0001 to 1 µM. Compound `C[C@H](NC(=O)N1CCN(c2ncnc3[nH]c(-c4ccc(F)cc4)cc23)C[C@H]1C)c1cccc(Cl)c1` [P-0701, (2R)-N-[(1S)-1-(3-chlorophenyl)ethyl]-4-[6-(4-fluorophenyl)-7H-pyrrolo[2,3-d]pyrimidin-4-yl]-2-methyl-piperazine-1-carboxamide] has an IC50 of 0.0001 to 1 µM. Compound `C[C@H](NC(=O)N1CCN(c2ncnc3[nH]c(-c4ccc(C#N)cc4)cc23)CC1)c1ccc(Cl)cc1` [P-0702, N-[(1S)-1-(4-chlorophenyl)ethyl]-4-[6-(4-cyanophenyl)-7H-pyrrolo[2,3-d]pyrimidin-4-yl]piperazine-1-carboxamide] has an IC50 of 0.0001 to 1 µM. `Cc1ccc(C(C)NC(=O)N2CCN(c3ncnc4cc(-c5ccc(F)cc5)sc34)CC2)s1` (stereo not drawn) [P-0703, 4-[6-(4-fluorophenyl)thieno[3,2-d]pyrimidin-4-yl]-N-[1-(5-methyl-2-thienyl)ethyl]piperazine-1-carboxamide] was tested, and the IC50 was 0.0001 to 1 µM. In the case of `Cc1nn(C)cc1-c1cc2ncnc(N3CC4CCC3CN4C(=O)N[C@H](C)c3ccc(F)cc3)c2s1` (stereo partly drawn) [P-0704, 5-[6-(1,3-dimethylpyrazol-4-yl)thieno[3,2-d]pyrimidin-4-yl]-N-[(1R)-1-(4-fluorophenyl)ethyl]-2,5-diazabicyclo[2.2.2]octane-2-carboxamide], the IC50 is reported as 0.0001 to 1 µM. Compound `COc1cc(-c2cc3c(N4CCN(C(=O)N[C@@H](C)c5cccc(Cl)c5)[C@H](C)C4)ncnc3[nH]2)ccn1` [P-0711, (2R)-N-[(1S)-1-(3-chlorophenyl)ethyl]-4-[6-(2-methoxy-4-pyridyl)-7H-pyrrolo[2,3-d]pyrimidin-4-yl]-2-methyl-piperazine-1-carboxamide] has an IC50 of 0.0001 to 1 µM. Work on `Cc1ccc([C@H](C)NC(=O)N2CCN(c3ncnc4[nH]c(-c5ccc(F)cc5)cc34)CC2)cc1` [P-0713, 4-[6-(4-fluorophenyl)-7H-pyrrolo[2,3-d]pyrimidin-4-yl]-N-[(1S)-1-(p-tolyl)ethyl]piperazine-1-carboxamide] yielded an IC50 of 0.0001 to 1 µM.
